# In patent publication US9868748B2, “Thiazolopyrrolidine inhibitors of ROR- γ” (Vitae Pharmaceuticals, Inc., priority 2013, dated 2018):
# Where two headings read alike, the source gives them in different places.
# Key:
# [1] = molecular target: recombinant RORγ Ligand Binding Domain (LBD) protein (Homo sapiens (Human), UniProt P51449); assay: Radio-Ligand RORγ Binding Assay (Assay 1); settings: competition with 25-hydroxy [26,27-3H]-cholesterol, SPA, read-out: RORγ Binding Ki Range*
# Procedure, shortened: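 Scintillation proximity competition binding of 8.6 nM stock 25-hydroxy[26,27-3H]cholesterol to 24 nM stock 6×His-GST-tagged human RORγ LBD, in 50 mM HEPES pH 7.4 with NaCl, MgCl2, glycerol, CHAPS, β-octylglucopyranoside and DTT, room temperature. Inhibition referenced to DMSO and 10 μM T0901317; IC50 by four-parameter fit, converted to Ki using radioligand concentration and KD.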
# [2] = molecular target: full-length RORγt in Jurkat cells (Homo sapiens (Human), UniProt P51449); assay: RORγt 5xRORE Assay in Jurkat Cells (Assay 2); type: cell-based; settings: Nanoluc luciferase reporter, 16-18 hrs
# Procedure, shortened: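 Jurkat cells co-transfected with full-length RORγt expression plasmid and a 5×RORE-driven secreted Nanoluc reporter, then plated at 80,000 cells/well in phenol-red-free RPMI with 10% delipidated FBS. Compounds added at 0.1% DMSO for 16–18 h at 37 °C; supernatant luciferase read for inverse agonism.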
# [3] = Table 8, read-out: RORγt5X IC50 Range*
# [4] = Table 9, read-out: RORγt5X IC50 Range*
# Sequence of recombinant RORγ Ligand Binding Domain (LBD) protein (P51449 269-508): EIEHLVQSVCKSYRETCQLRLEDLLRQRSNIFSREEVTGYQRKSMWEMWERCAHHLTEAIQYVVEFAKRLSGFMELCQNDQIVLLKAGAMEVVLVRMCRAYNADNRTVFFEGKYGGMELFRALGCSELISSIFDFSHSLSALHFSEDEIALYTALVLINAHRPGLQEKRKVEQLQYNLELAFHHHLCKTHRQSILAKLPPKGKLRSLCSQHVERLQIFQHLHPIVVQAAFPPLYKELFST
# Sequence of full-length RORγt in Jurkat cells (P51449 other isoform, or with tags, fused parts or gaps): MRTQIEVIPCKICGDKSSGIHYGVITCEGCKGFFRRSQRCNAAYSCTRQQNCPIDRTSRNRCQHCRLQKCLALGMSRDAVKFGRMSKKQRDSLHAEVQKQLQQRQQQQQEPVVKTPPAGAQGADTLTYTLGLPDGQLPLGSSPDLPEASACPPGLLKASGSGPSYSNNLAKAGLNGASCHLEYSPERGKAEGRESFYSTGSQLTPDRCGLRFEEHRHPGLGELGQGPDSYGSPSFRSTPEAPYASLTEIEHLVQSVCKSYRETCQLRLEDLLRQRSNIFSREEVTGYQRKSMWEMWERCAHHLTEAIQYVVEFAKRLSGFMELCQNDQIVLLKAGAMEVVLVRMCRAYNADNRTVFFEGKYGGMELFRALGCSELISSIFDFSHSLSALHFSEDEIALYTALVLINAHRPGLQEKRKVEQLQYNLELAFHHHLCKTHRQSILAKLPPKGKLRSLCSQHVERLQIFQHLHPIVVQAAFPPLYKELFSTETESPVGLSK
SMILES,Ki ([1]; Table 8),"IC50 [2, 3]",Ki ([1]; Table 9),"IC50 [2, 4]"
CCS(=O)(=O)c1ccc(CNC(=O)c2nc3c(s2)CN(C[C@@H]2CN(C(=O)OC(C)(C)C)CCO2)[C@H]3C(C)C)cc1 [I-J5],< 100 nM,< 100 nM,,
CC(C)[C@H]1c2nc(C(=O)NCc3ccc(S(C)(=O)=O)cc3)sc2CN1Cc1ccc(C#N)cc1,,,< 100 nM,100 to 1000 nM
CCOC(=O)c1cnc(N2Cc3sc(NC(=O)Cc4ccc(S(=O)(=O)CC)cc4)nc3[C@@H]2C(C)C)nc1C(F)(F)F,,,< 100 nM,> 1000 nM
"CCS(=O)(=O)c1ccc(CC(=O)Nc2nc3c(s2)CN(C[C@@H]2CC[C@H](C(F)(F)F)NC2)[C@H]3C(C)C)nc1 (single isomer, unassigned)",,,< 100 nM,> 1000 nM
CCS(=O)(=O)c1ccc(CC(=O)Nc2nc3c(s2)CN(CCc2ccc(Cl)cc2)[C@H]3C(C)C)cc1,,,< 100 nM,> 1000 nM
CCS(=O)(=O)c1ccc(CC(=O)Nc2nc3c(s2)CN(Cc2ccc(-c4nnn(C)n4)cc2)[C@H]3C(C)C)nc1 [I-C9],< 100 nM,< 100 nM,,
CCS(=O)(=O)c1ccc(CC(=O)Nc2nc3c(s2)CN(C[C@@H]2CN(C(=O)OC(C)(C)C)CCO2)[C@H]3C(C)C)cc1 [I-A43],< 100 nM,< 100 nM,,
CCS(=O)(=O)c1ccc(CC(=O)Sc2nc3c(s2)CN(Cc2ccc(Cl)cc2)C3(C)C)cc1,,,< 100 nM,100 to 1000 nM
CCS(=O)(=O)c1ccc(CC(=O)Nc2nc3c(s2)CN([C@@H](C)c2ccc(Cl)cc2F)[C@H]3C(C)C)cc1 [I-A39],< 100 nM,< 100 nM,,
CCS(=O)(=O)c1cnc(CC(=O)Nc2nc3c(s2)CN(Cc2ccc(-c4nnn(C)n4)cc2)[C@H]3C(C)C)nc1,,,< 100 nM,100 to 1000 nM
CCS(=O)(=O)c1ccc(CC(=O)Nc2nc3c(s2)CN(Cc2ccc(C#N)cn2)[C@H]3C(C)C)cc1 [I-A5],< 100 nM,< 100 nM,,
CCS(=O)(=O)c1ccc(CC(=O)Nc2nc3c(s2)CN(Cc2ccc(C)cc2)[C@H]3C(C)C)cc1 [I-A64],< 100 nM,< 100 nM,,
CCS(=O)(=O)c1ccc(CC(=O)Nc2nc3c(s2)CN(Cc2ccc(C(F)(F)F)nc2)[C@H]3C(C)C)cc1 [I-A62],< 100 nM,< 100 nM,,
CC(C)[C@H]1c2nc(NC(=O)Cc3ccc(S(C)(=O)=O)cc3)sc2CN1Cc1ccc(C(F)(F)F)nc1 [I-B5],< 100 nM,< 100 nM,,
CC(C)[C@H]1c2nc(NC(=O)Cc3ccc(S(C)(=O)=O)cc3)sc2CN1Cc1ccn(C)c(=O)c1,,,100 to 1000 nM,> 1000 nM
CCS(=O)(=O)c1ccc(CC(=O)Nc2nc3c(s2)CN(C[C@H]2CC[C@H](c4nnc(C)o4)CC2)[C@H]3C(C)C)cc1 [I-A23],< 100 nM,< 100 nM,,
CCS(=O)(=O)c1ccc(CC(=O)Nc2nc3c(s2)CN(Cc2ccc(C)nn2)[C@H]3C(C)C)cc1,,,< 100 nM,> 1000 nM
CCS(=O)(=O)c1ccc(CC(=O)Nc2nc3c(s2)CN(Cc2ccc(C#N)cc2)[C@H]3C(C)C)nc1 [drawing 230],,,< 100 nM,< 100 nM
CCS(=O)(=O)c1ccc(CC(=O)Nc2nc3c(s2)CN(Cc2ccccc2)[C@H]3C(C)C)cc1 [I-A7],< 100 nM,> 1000 nM,,
CC(C)[C@H]1c2nc(C(=O)NCc3ccc(S(C)(=O)=O)cc3)sc2CN1Cc1ccc(OC(F)F)cc1 [I-K2],< 100 nM,< 100 nM,,
"CCS(=O)(=O)c1ccc(CC(=O)Nc2nc3c(s2)CN(C[C@@H]2CC[C@H](C(F)(F)F)N(C4CC4)C2)[C@H]3C(C)C)cc1 (single isomer, unassigned)",,,< 100 nM,> 1000 nM
CCS(=O)(=O)c1ccc(CC(=O)Nc2nc3c(s2)CN(Cc2ccc(C(F)F)cc2)[C@H]3C(C)C)cc1 [I-A61],< 100 nM,< 100 nM,,
CC(C)[C@H]1c2nc(NC(=O)Cc3ccc(-c4nnn[nH]4)cc3)sc2CN1Cc1ccc(Cl)cc1,,,100 to 1000 nM,> 1000 nM
CC(C)[C@H]1c2nc(NC(=O)Cc3ccc(C#N)cc3)sc2CN1Cc1ccc(C#N)cc1,,,< 100 nM,100 to 1000 nM

SMILES,Ki ([1]; Table 8),"IC50 [2, 3]",Ki ([1]; Table 9),"IC50 [2, 4]"
"CCS(=O)(=O)c1ccc(CC(=O)Nc2nc3c(s2)CN(C[C@@H]2CC[C@@H](C(F)(F)F)N(C4CC4)C2)[C@H]3C(C)C)cc1 (single isomer, unassigned)",,,< 100 nM,> 1000 nM
CCS(=O)(=O)c1ccc(CC(=O)Nc2nc3c(s2)CN(Cc2cccc(S(C)(=O)=O)c2)[C@@H]3C(C)C)cc1,,,100 to 1000 nM,> 1000 nM
"CCS(=O)(=O)c1ccc(CNC(=O)c2nc3c(s2)CN(Cc2ccc(Cl)cc2)[C@H]3C(C)C)cc1 [I-J1, (S)-5-(4-chlorobenzyl)-N-(4-(ethylsulfonyl)benzyl)-4-isopropyl-5,6-dihydro-4H-pyrrolo[3,4-d]thiazole-2-carboxamide]",< 100 nM,< 100 nM,,
CCS(=O)(=O)c1ccc(CC(=O)Nc2nc3c(s2)CN(Cc2ccc(Cl)cc2)[C@@]3(C)C(C)C)cc1,,,< 100 nM,< 100 nM
CC[C@@H]1c2nc(NC(=O)Cc3ccc(S(=O)(=O)CC)cc3)sc2CN1Cc1ccc(Cl)cc1,,,< 100 nM,> 1000 nM
CC(C)[C@@H]1c2nc(NC(=O)Cc3ccc(S(C)(=O)=O)cc3)sc2CN1Cc1ccc(OC(F)F)cc1,,,100 to 1000 nM,100 to 1000 nM
CC1(C)c2nc(NC(=O)Cc3ccc(S(C)(=O)=O)cc3)sc2CN1Cc1ccc(Cl)cc1,,,100 to 1000 nM,> 1000 nM
CC(C)[C@H]1c2nc(NC(=O)Cc3ccc(S(N)(=O)=O)cc3)sc2CN1Cc1ccc(C(F)(F)F)cc1,,,< 100 nM,< 100 nM
CC(C)[C@H]1c2nc(NC(=O)Cc3ccc(S(C)(=O)=O)cc3)sc2CN1Cc1ccc(C(F)(F)F)cn1 [I-B4],< 100 nM,< 100 nM,,
CC(C)[C@H]1c2nc(NC(=O)Cc3ccc(S(C)(=O)=O)cc3)sc2CN1Cc1ccc(C#N)cc1 [I-B18],< 100 nM,< 100 nM,,
CCS(=O)(=O)c1ccc(CC(=O)Nc2nc3c(s2)CN(Cc2ccc(C(F)(F)F)cc2C#N)[C@H]3C(C)C)cc1 [I-A45],< 100 nM,< 100 nM,,
CCS(=O)(=O)c1ccc(CC(=O)Nc2nc3c(s2)CN(Cc2ccc(C(F)(F)F)c(Cl)c2)[C@@H]3C(C)C)cc1,,,< 100 nM,100 to 1000 nM
CCS(=O)(=O)c1ccc(CC(=O)Nc2nc3c(s2)CN(Cc2ccc(C(F)(F)F)c(C)n2)[C@H]3C(C)C)cc1 [I-A33],< 100 nM,< 100 nM,,
"CCS(=O)(=O)c1ccc(CC(=O)Nc2nc3c(s2)CN([C@@H](C)c2ccccc2)[C@@H]3C(C)C)cc1 (single isomer, unassigned)",,,< 100 nM,> 1000 nM
CC(C)[C@@H]1c2nc(NC(=O)Cc3ccc(S(C)(=O)=O)cc3)sc2CN1Cc1ccc(OC(F)(F)F)cc1,,,100 to 1000 nM,> 1000 nM
CC(C)[C@H]1c2nc(NC(=O)Cc3ccc(S(C)(=O)=O)cc3)sc2CN1[C@H](C)c1ccc(C#N)cc1Cl,,,< 100 nM,100 to 1000 nM
CCS(=O)(=O)c1ccc(CC(=O)Nc2nc3c(s2)CN([C@@H](C)c2ccc(Cl)cn2)[C@H]3C(C)C)cc1 [I-A48],< 100 nM,< 100 nM,,
CCS(=O)(=O)c1ccc(CC(=O)Nc2nc3c(s2)CN(Cc2cccc(C(F)(F)F)c2)[C@@H]3C(C)C)cc1,,,< 100 nM,> 1000 nM
CCS(=O)(=O)c1ccc(CC(=O)Nc2nc3c(s2)CN(c2cnc(C(F)(F)F)cn2)[C@H]3C(C)C)cc1,,,< 100 nM,> 1000 nM
CCS(=O)(=O)c1ccc(CC(=O)Nc2nc3c(s2)CN(Cc2cc(C)c(C#N)cn2)[C@H]3C(C)C)cc1 [I-A49],< 100 nM,< 100 nM,,
"CC(C)[C@H]1c2nc(NC(=O)Cc3ccc(S(C)(=O)=O)cc3)sc2CN1[C@H](C)c1ccc(Cl)cn1 (single isomer, unassigned)",,,< 100 nM,100 to 1000 nM
CC(C)[C@@H]1c2nc(NC(=O)Cc3ccc(S(C)(=O)=O)cc3)sc2CN1Cc1cccc(Br)c1,,,< 100 nM,> 1000 nM
CCS(=O)(=O)c1ccc(CC(=O)Nc2nc3c(s2)CN(c2nccc(C(F)(F)F)n2)[C@H]3C(C)C)cc1,,,< 100 nM,> 1000 nM
CC[C@H](C)C1c2nc(NC(=O)Cc3ccc(S(C)(=O)=O)cc3)sc2CN1Cc1ccc(C#N)c(F)c1 (stereo partly drawn) [I-H2],< 100 nM,< 100 nM,,
